According to patent US20200288710A1, “SUBSTITUTED SULPHONAMIDES FOR CONTROLLING ANIMAL PESTS” (BAYER CROPSCIENCE AKTIENGESELLSCHAFT, priority 2016, published 2020):

What was measured:
Assay type in all cases: in vivo
Myzus persicae [1] = test: Myzus persicae oral test; conditions: 120 h, 20 ppm, oral uptake, after 5 days, read-out: efficacy
In short: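 Compound dissolved in acetone, diluted in water, then mixed 50:150 μl with IPL41 insect medium (33%+15% sugar). Mixed-population green peach aphids feed through a parafilm seal on the solution; mortality scored as % efficacy after 5 days (100% = all killed).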

Musca domestica = Musca domestica test; conditions: 48 h, adult houseflies, after 2 days, read-out: efficacy (kill in %)
Experimental: Musca domestica Test Solvent: dimethyl sulphoxide To produce a suitable preparation of active compound, 10 mg of active compound are mixed with 0.5 ml of dimethyl sulphoxide, and the concentrate is diluted with water to the desired concentration. Vessels containing a sponge treated with sugar solution and the active compound preparation of the desired concentration are populated with 10 adult houseflies (Musca domestica). After 2 days, the kill in % is determined. 100% means that all of the flies have been killed; 0% means that none of the flies have been killed.

Myzus persicae [2] = test: Myzus persicae spray test (Chinese cabbage leaf discs); conditions: foliar, 120 h, 500 g/ha, after 5-6 days, read-out: efficacy
In short: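 Chinese cabbage leaf discs infested with all stages of green peach aphid were sprayed with compound formulated in acetone/DMF and emulsifier-containing water. Efficacy in % was scored after 5-6 days, with 100% meaning all aphids killed and 0% none killed.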

Meloidogyne incognita = Meloidogyne incognita test; conditions: 336 h, lettuce, after 14 days, read-out: nematicidal efficacy (formation of galls)
In short: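 Active compound in acetone, diluted with water, added to sand-filled vessels with M. incognita eggs/larvae and lettuce seeds. After 14 days, efficacy scored by root gall formation: 100% = no galls, 0% = galls equal to untreated control.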

Myzus persicae [3] = test: Myzus persicae spray test (bell pepper plants); conditions: 144 h, after 6 days, read-out: efficacy (kill in %)
Experimental: Myzus persicae—Spray Test Solvent: 14 parts by weight of dimethylformamide Emulsifier: alkylaryl polyglycol ether To produce a suitable preparation of active compound, 1 part by weight of active compound is dissolved using the specified parts by weight of solvent and made up with water containing an emulsifier concentration of 1000 ppm until the desired concentration is attained. To produce further test concentrations, the formulation is diluted with emulsifier-containing water. If the addition of ammonium salts or/and penetrants is required, these are each added in a concentration of 1000 ppm to the formulation solution. Bell pepper plants (Capsicum annuum) severely infested with the green peach aphid (Myzus persicae) are treated by spraying with the active compound preparation in the desired concentration. After 6 days, the kill in % is determined. 100% means that all of the aphids have been killed; 0% means that none of the aphids have been killed.

Lucilia cuprina = Lucilia cuprina test; conditions: 48 h, L1 larvae, after 2 days, read-out: efficacy (kill in %)
Experimental: Lucilia cuprina Test Solvent: dimethyl sulphoxide To produce a suitable preparation of active compound, 10 mg of active compound are mixed with 0.5 ml of dimethyl sulphoxide, and the concentrate is diluted with water to the desired concentration. About 20 L1 larvae of the Australian sheep blowfly (Lucilia cuprina) are transferred into a test vessel containing minced horsemeat and the active compound preparation of the desired concentration. After 2 days, the kill in % is determined. 100% means that all the larvae have been killed; 0% means that no larvae have been killed.

Phaedon cochleariae = Phaedon cochleariae spray test; conditions: foliar, 168 h, Chinese cabbage leaf discs, larvae, after 7 days, read-out: efficacy
In short: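 Compound dissolved in solvent and diluted with water containing 1000 ppm emulsifier to test concentrations. Efficacy read after 7 days as % beetle larvae killed (100% all killed, 0% none).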

Tetranychus urticae = Tetranychus urticae spray test, OP-resistant; conditions: foliar, 144 h, bean leaf discs, after 6 days, read-out: efficacy
Experimental: Tetranychus urticae—Spray Test, OP-Resistant
To produce a suitable preparation of active compound, 1 part by weight of active compound is dissolved using the specified parts by weight of solvent and made up with water containing an emulsifier concentration of 1000 ppm until the desired concentration is attained. To produce further test concentrations, the formulation is diluted with emulsifier-containing water.
Discs of bean leaves (Phaseolus vulgaris) infested with all stages of the greenhouse red spider mite (Tetranychus urticae) are sprayed with an active compound preparation of the desired concentration.
After 6 days, the efficacy in % is determined. 100% means that all the spider mites have been killed; 0% means that no spider mites have been killed.

| SMILES | pest or weed control at 20 ppm (Myzus persicae [1]) [%] | pest or weed control at 100 ppm (Musca domestica) [%] | pest or weed control at 500 g/ha (Myzus persicae [2]) [%] | pest or weed control at 20 ppm (Meloidogyne incognita) [%] | pest or weed control at 100 ppm (Myzus persicae [3]) [%] | pest or weed control at 100 ppm (Lucilia cuprina) [%] | pest or weed control at 500 g/ha (Phaedon cochleariae) [%] | pest or weed control at 20 ppm (Myzus persicae [3]; 20 ppm) [%] | pest or weed control at 500 g/ha (Tetranychus urticae) [%] |
| --- | --- | --- | --- | --- | --- | --- | --- | --- | --- |
| Cc1ccccc1S(=O)(=O)NC(=O)c1cn(C)c(-c2ccccc2F)n1 [Example 32] | 100 | 80 | 90 | 90 |  |  |  |  |  |
| Cn1cc(C(=O)NS(=O)(=O)c2cc(C(F)(F)F)ccc2Cl)nc1-c1ccccc1Cl [Example 52] | 100 | 80 | 90 | 90 |  |  |  |  |  |
| Cn1cc(C(=O)NS(=O)(=O)Cc2ccccc2)nc1-c1ccccc1Cl [Example 60] | 100 |  |  | 100 | 85 |  |  |  |  |
| CCn1cc(C(=O)NS(=O)(=O)c2cc(OC)ccc2Cl)nc1-c1ccccc1Cl [Example 68] | 100 | 80 |  | 90 | 100 | 100 |  |  |  |
| COc1ccc(Cl)c(S(=O)(=O)NC(=O)c2cn(C)c(-c3c(F)cccc3Cl)n2)c1 [Example 107] | 100 | 100 | 100 |  |  | 100 | 100 |  |  |
| Cc1[nH]c(C(=O)NS(=O)(=O)c2ccccc2Br)nc1-c1c(F)cccc1F [Example 146] |  |  |  |  | 90 |  |  |  |  |
| COc1ccc(OC)c(S(=O)(=O)NC(=O)c2cn(C)c(-c3c(F)cccc3Cl)n2)c1 [Example 151] |  | 100 | 100 |  |  |  |  |  |  |
| Cn1cc(C(=O)NS(=O)(=O)c2ccccc2Br)nc1-c1c(F)cccc1Cl [Example 152] | 100 | 80 | 90 | 100 |  |  | 100 |  |  |
| COc1ccc(Br)c(S(=O)(=O)NC(=O)c2cn(C)c(-c3c(F)cccc3Cl)n2)c1 [Example 153] | 100 | 80 | 100 | 90 |  |  | 100 |  |  |
| COc1ccc(F)cc1S(=O)(=O)NC(=O)c1cn(C)c(-c2c(F)cccc2Cl)n1 [Example 155] | 100 | 80 | 90 |  |  |  |  |  |  |
| Cc1ccc(Cl)cc1S(=O)(=O)NC(=O)c1cn(C)c(-c2c(F)cccc2F)n1 [Example 172] | 100 | 90 | 90 | 100 |  |  | 100 |  |  |
| Cn1cc(C(=O)NS(=O)(=O)c2ccc(Cl)cc2Cl)nc1-c1c(F)cccc1F [Example 174] | 100 | 90 | 100 | 100 |  |  | 83 |  |  |
| CCc1ccccc1S(=O)(=O)NC(=O)c1cn(C)c(-c2c(F)cccc2F)n1 [Example 185] | 100 | 80 | 100 | 90 |  |  |  |  |  |
| Cc1cccc(C)c1S(=O)(=O)NC(=O)c1cn(C)c(-c2c(F)cccc2F)n1 [Example 186] | 100 | 85 | 100 | 90 |  | 100 | 100 |  |  |
| Cc1c(C(=O)NS(=O)(=O)c2ccccc2Br)nc(-c2c(F)cccc2F)n1C [Example 195] | 100 |  |  | 90 |  |  | 100 | 80 | 90 |
| Cn1cc(C(=O)NS(=O)(=O)c2ccc(Cl)cc2Cl)nc1-c1ccccc1Cl [Example 231] |  | 100 | 90 | 100 |  | 100 | 100 |  |  |
| Cc1[nH]c(-c2ccc(Cl)c(Cl)c2)nc1C(=O)NS(=O)(=O)C(C)C [Example 237] | 100 |  |  |  | 90 |  |  |  |  |
| CCc1cccc(C(F)(F)F)c1S(=O)(=O)NC(=O)c1cn(C)c(-c2c(F)cccc2F)n1 [Example 337] | 100 | 80 | 90 | 90 |  |  | 100 |  |  |
| Cc1nc(C)c(S(=O)(=O)NC(=O)c2cn(C)c(-c3c(F)cccc3F)n2)s1 [Example 347] | 90 |  |  |  | 90 |  |  |  |  |
| Cc1ccc(C)c(S(=O)(=O)NC(=O)c2cn(C)c(-c3c(F)cccc3F)n2)c1 [Example 394] | 100 | 100 | 100 | 90 |  | 95 | 100 |  |  |
| CCn1c(C(=O)NS(=O)(=O)c2ccccc2Br)nc(-c2c(F)cccc2F)c1C [Example 415] | 100 |  |  | 100 | 100 |  |  |  |  |
| Cc1ccccc1S(=O)(=O)NC(=O)c1cn(C)c(-c2c(C)cccc2C)n1 [Example 478] | 100 |  |  | 90 | 99 |  |  |  |  |
| Cc1ccccc1S(=O)(=O)NC(=O)c1cn(C)c(-c2cccc(F)c2F)n1 [Example 518] | 100 |  |  | 90 | 95 |  |  |  |  |
| Cc1ccccc1S(=O)(=O)NC(=O)c1cn(C)c(-c2ccccc2-c2ccccc2)n1 [Example 533] | 100 |  |  |  | 90 |  |  |  |  |
| Cc1ccccc1S(=O)(=O)NC(=O)c1cn(C)c(-c2ccc(Cl)c(Cl)c2)n1 [Example 536] | 100 |  |  | 90 | 80 |  |  |  |  |
| COc1ccccc1S(=O)(=O)NC(=O)c1cn(C)c(-c2ncccc2F)n1 [Example 538] | 100 |  |  | 90 | 100 |  |  |  |  |
| Cc1cccc(Cl)c1S(=O)(=O)NC(=O)c1cn(C)c(-c2ncccc2Cl)n1 [Example 576] | 100 | 100 | 100 |  |  | 100 | 100 |  |  |
| Cc1[nH]c(-c2ccc(F)cc2F)nc1C(=O)NS(=O)(=O)c1ccccc1Cl [Example 616] | 100 |  |  | 100 | 97 |  |  |  |  |
